pIC50: −log10 of the molar value.

Data set [1] concerns Mus musculus. Put plainly: Acute toxicity in mouse at 125 mg/kg, ip after 24 hrs. Format: organism-based. Conditions: in vivo.
Data set [2] deals with T1, Amine oxidase [flavin-containing] B (Bos taurus, UniProt P56560).
T1 sequence (P56560 whole entry): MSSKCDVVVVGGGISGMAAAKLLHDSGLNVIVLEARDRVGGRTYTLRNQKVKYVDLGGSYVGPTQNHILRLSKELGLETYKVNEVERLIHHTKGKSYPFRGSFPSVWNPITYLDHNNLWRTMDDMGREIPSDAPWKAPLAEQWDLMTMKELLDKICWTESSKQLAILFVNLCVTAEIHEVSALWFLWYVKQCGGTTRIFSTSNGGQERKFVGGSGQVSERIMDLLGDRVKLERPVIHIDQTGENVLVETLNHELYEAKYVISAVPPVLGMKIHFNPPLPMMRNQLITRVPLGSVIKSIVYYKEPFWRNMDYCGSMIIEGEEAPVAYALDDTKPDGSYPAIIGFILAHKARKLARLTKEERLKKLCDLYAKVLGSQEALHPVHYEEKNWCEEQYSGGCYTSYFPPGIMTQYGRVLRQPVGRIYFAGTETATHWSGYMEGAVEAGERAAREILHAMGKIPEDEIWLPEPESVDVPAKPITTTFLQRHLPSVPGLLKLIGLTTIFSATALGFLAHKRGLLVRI
Put plainly: Inhibition of bovine brain mitochondria MAO-B using benzylamine substrate after 60 mins by fluorimetric method.

The target of data set [3] is T2, Amine oxidase [flavin-containing] A (Bos taurus, UniProt P21398).
T2 sequence (P21398 whole entry): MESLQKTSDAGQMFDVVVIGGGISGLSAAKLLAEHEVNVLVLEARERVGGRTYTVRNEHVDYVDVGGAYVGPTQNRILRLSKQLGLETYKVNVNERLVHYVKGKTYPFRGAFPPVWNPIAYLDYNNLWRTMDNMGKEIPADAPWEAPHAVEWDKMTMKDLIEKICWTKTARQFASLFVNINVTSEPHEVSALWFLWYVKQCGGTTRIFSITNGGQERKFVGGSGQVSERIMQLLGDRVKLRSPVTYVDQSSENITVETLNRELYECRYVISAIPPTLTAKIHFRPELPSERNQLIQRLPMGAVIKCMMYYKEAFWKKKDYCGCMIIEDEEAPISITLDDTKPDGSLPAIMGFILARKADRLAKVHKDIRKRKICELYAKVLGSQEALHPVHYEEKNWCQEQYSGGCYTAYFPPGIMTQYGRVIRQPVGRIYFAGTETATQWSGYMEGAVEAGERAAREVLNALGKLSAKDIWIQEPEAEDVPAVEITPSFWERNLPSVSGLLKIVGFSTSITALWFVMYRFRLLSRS
Kind of data set: Inhibition of bovine brain mitochondria MAO-A using serotonin substrate after 60 mins by fluorimetric method.

Data set [4] relates to Mus musculus. Put plainly: Acute toxicity in mouse at 300 mg/kg, po after 24 hrs. Conditions: in vivo. Type of data set: organism-based.

In general, pIC50 refers to −log10 of the IC50, conventionally taken in molar units. `COC(=O)[C@H](C)NC(=O)c1ccccc1N`: the Activity entry in the data set on Mus musculus [1] and in the data set with Mus musculus [4] was “Non-toxic” throughout. Besides, the negative logarithm of the IC50 (pIC50) in data set [2] is 3.39; in data set [3] it was 7.20.
Turning to `COC(=O)CNC(=O)c1ccccc1N`, the Activity result in the data set with Mus musculus [1] and in the data set with Mus musculus [4] was “Non-toxic” each time. Moreover, the values for the negative-log IC50 (pIC50) in data set [2] and in data set [3] were 3.07 and 7.28, respectively.
